Each block holds one compound with its values, some of them ahead of it.
What was measured:
Plasma kallikrein [1] = target: T1, Plasma kallikrein (Homo sapiens, UniProt P03952); experiment: Inhibition of human plasma kallikrein using H-D-Pro-Phe-Arg-p-nitroaniline as substrate assessed as inhibition constant
Plasma kallikrein [2] = target: T1, Plasma kallikrein; experiment: Inhibition of plasma kallikrein (unknown origin)
Prothrombin [3] = target: T2, Prothrombin (Homo sapiens, UniProt P00734); experiment: Inhibition of thrombin (unknown origin)
Coagulation factor X = Coagulation factor X (Homo sapiens, UniProt P00742); experiment: Inhibition of fXa (unknown origin)
Sequence of Coagulation factor X (P00742 41-179 limits assumed): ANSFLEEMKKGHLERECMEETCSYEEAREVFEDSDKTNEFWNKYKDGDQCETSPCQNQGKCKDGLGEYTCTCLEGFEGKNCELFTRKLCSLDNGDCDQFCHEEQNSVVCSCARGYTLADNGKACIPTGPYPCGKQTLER
Sequence of Coagulation factor X (P00742 235-488 limits assumed): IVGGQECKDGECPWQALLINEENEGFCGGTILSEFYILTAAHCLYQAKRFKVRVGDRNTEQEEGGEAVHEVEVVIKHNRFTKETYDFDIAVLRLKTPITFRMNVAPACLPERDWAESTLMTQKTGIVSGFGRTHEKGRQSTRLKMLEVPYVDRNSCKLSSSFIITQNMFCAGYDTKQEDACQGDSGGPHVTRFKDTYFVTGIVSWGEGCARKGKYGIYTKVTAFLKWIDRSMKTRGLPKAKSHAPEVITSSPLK

Coagulation factor XI [4] = target: T3, Coagulation factor XI (Homo sapiens, UniProt P03951); experiment: Inhibition of fXIa (unknown origin)
T3 sequence (P03951 19-387 limits assumed): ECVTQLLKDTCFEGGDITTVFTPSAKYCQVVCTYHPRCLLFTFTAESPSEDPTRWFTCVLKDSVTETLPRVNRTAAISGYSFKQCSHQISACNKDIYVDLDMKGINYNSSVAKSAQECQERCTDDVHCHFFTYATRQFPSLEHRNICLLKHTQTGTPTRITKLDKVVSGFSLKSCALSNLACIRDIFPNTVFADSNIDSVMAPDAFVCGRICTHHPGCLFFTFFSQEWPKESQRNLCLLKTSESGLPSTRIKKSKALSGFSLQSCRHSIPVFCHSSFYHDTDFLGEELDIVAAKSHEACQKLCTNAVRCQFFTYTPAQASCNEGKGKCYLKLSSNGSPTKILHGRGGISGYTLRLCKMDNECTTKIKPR
T3 sequence (P03951 388-625 limits assumed): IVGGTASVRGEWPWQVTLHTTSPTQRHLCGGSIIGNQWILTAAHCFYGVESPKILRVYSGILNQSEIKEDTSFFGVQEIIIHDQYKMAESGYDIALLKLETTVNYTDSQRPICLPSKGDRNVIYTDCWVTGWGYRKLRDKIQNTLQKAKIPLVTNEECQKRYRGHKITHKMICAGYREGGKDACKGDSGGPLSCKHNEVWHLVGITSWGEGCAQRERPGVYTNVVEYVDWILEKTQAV

Coagulation factor XII [5] = target: T4, Coagulation factor XII (Homo sapiens, UniProt P00748); experiment: Inhibition of fXIIa (unknown origin)
T4 sequence (P00748 whole entry): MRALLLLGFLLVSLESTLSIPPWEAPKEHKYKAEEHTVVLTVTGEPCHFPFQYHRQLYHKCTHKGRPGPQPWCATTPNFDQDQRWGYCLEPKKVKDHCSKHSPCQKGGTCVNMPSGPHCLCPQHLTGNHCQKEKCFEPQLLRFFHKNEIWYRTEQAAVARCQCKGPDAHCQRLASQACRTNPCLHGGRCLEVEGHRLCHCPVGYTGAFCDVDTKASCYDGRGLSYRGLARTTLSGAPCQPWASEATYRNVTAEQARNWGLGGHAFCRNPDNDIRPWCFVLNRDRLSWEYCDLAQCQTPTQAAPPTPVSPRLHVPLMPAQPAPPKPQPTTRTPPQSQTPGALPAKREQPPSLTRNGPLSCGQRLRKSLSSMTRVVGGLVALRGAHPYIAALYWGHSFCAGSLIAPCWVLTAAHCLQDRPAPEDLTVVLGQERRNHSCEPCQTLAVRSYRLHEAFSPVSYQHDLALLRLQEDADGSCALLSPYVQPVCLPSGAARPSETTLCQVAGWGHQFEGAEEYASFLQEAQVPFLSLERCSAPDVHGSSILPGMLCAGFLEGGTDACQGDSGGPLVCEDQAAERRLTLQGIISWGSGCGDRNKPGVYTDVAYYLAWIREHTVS

Plasma kallikrein [6] = target: T1, Plasma kallikrein; experiment: Inhibition of human plasma kallikrein using H-DPro-Phe-Arg-AFC as substrate
Kallikrein-1 [7] = target: T5, Kallikrein-1 (Homo sapiens, UniProt P06870); experiment: Inhibition of KLK1 (unknown origin)
T5 sequence (P06870 whole entry): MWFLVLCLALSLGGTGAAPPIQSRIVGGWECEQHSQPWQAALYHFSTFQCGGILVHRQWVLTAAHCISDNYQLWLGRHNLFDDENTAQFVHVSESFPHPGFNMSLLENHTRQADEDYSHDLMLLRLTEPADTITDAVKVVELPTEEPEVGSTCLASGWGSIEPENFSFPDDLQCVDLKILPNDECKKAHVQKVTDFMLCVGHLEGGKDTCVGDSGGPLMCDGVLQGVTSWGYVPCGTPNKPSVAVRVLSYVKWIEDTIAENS

Coagulation factor XI [8] = target: T3, Coagulation factor XI; experiment: Inhibition of human fXIa using Z-Gly-Pro-Arg-AFC as substrate
Coagulation factor XII [9] = target: T4, Coagulation factor XII; experiment: Inhibition of human fXIIa using H-DPro-Phe-Arg-AFC as substrate
Trypsin [10] = target: T6, Trypsin (Homo sapiens, UniProt P07477+P07478+P35030); experiment: Inhibition of human trypsin; assay type: protein assay
Plasminogen [11] = target: T7, Plasminogen (Homo sapiens, UniProt P00747); experiment: Inhibition of human plasmin
T7 sequence (P00747 97-580 limits assumed): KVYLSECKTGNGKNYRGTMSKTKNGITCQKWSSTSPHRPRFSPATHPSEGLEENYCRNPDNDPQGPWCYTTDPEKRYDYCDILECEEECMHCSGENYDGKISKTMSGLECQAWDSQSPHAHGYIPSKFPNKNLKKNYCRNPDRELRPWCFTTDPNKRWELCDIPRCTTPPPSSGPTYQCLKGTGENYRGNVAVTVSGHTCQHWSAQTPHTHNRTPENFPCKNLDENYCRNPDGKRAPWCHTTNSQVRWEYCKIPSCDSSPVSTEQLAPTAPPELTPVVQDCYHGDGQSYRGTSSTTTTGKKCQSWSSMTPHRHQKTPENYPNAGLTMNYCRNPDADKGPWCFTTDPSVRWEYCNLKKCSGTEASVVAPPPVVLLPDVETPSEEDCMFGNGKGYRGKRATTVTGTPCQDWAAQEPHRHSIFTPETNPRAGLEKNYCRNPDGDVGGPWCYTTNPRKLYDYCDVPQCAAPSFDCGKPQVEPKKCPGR
T7 sequence (P00747 581-810 limits assumed): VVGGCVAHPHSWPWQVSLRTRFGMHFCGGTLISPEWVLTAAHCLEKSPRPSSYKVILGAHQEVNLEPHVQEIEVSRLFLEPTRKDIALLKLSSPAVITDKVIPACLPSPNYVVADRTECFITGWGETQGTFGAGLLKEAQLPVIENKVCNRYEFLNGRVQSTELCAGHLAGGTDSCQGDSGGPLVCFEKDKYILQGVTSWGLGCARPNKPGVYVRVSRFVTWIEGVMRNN

Prothrombin [12] = target: T2, Prothrombin; experiment: Inhibition of human thrombin
Plasma kallikrein [13] = target: T1, Plasma kallikrein; experiment: Inhibition of human plasma kallikrein usingPro-Phe-Arg-AMC as substrate incubated for 5 mins; assay type: single protein
Plasminogen [14] = target: T7, Plasminogen; experiment: Inhibition of plasmin (unknown origin)
Trypsin [15] = target: T6, Trypsin; experiment: Inhibition of trypsin (unknown origin); assay type: protein assay
[16] = target: Urokinase-type plasminogen activator (Homo sapiens, UniProt P00749); experiment: Inhibition of Urokinase (unknown origin)
Kallikrein-1 [17] = target: T5, Kallikrein-1; experiment: Inhibition of human KLK1 using H-DVal-Leu-Arg-AFC as substrate

T1 sequence (P03952 20-390 limits assumed): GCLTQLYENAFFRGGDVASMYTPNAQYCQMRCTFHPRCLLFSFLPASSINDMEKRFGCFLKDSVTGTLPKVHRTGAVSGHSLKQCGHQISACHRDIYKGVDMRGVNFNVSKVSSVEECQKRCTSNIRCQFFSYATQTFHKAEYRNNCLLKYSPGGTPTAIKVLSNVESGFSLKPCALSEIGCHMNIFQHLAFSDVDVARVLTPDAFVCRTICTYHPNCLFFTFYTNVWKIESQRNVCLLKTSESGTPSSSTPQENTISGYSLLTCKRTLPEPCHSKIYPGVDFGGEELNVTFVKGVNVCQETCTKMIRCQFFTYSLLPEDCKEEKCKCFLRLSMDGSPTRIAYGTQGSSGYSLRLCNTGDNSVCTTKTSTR
T1 sequence (P03952 391-638 limits assumed): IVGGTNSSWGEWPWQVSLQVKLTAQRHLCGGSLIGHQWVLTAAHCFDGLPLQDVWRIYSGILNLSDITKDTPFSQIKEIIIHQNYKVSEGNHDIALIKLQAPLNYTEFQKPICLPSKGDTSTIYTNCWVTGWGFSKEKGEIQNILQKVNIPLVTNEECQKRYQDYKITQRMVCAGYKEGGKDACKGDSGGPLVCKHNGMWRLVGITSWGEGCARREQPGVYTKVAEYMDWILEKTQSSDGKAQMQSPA

Compound: CO[C@@H]1C[C@H](C(=O)Nc2cc(C(N)(CCC3CC3)c3ccccn3)ccc2F)N(C(=O)Nc2ccc(Cl)cn2)C1 (some centres not stated)
- IC50 (Plasma kallikrein [1]): < 50 nM

Compound: N=C(N)c1ccc(CNC(=O)c2cnn(Cc3ccccc3)c2)cc1
- IC50 (Plasma kallikrein [2]): 90 nM
- IC50 (Prothrombin [3]): > 10000 nM
- IC50 (Coagulation factor X): > 10000 nM
- IC50 (Coagulation factor XI [4]): > 10000 nM
- IC50 (Coagulation factor XII [5]): > 10000 nM

Compound: CCOc1ccc(C[C@@H](NC(=O)c2sccc2C)C(=O)N[C@@H](Cc2ccccc2)C(=O)NCc2ccc(CN)cc2)cc1
- IC50 (Plasma kallikrein [6]): 10 nM

Compound: N=C(N)NCCCC[C@H](NC(=O)C1CCC(CN)CC1)C(=O)Nc1ccc(C(=O)O)cc1 (some centres not stated)
- IC50 (Plasma kallikrein [2]): 14000 nM

Compound: COCc1nn(Cc2ccc(Cn3cc(C)cn3)cc2)cc1C(=O)NCc1cnc2[nH]cc(Cl)c2c1
- IC50 (Plasma kallikrein [6]): 8.7 nM

Compound: Fc1c(CNc2ncnc3nc(Cc4ccc5ncc(Cl)cc5c4)[nH]c23)ccc2[nH]cc(Cl)c12
- IC50 (Plasma kallikrein [13]): < 100 nM

Compound: NCC1CCC(C(=O)N[C@@H](Cc2ccccc2)C(=O)Nc2ccc(CC(=O)O)cc2)CC1 (some centres not stated)
- IC50 (Plasma kallikrein [2]): 1300 nM
- IC50 (Plasminogen [14]): 620000 nM
- IC50 (Trypsin [15]): 12000 nM
- IC50 [16]: 350000 nM

Compound: COCc1nn(Cc2ccc(Cn3cc(F)ccc3=O)cc2)cc1C(=O)NCc1nccc(OC)c1F
- IC50 (Plasminogen [14]): > 40000 nM
- IC50 (Prothrombin [3]): > 40000 nM
- IC50 (Kallikrein-1 [7]): > 40000 nM
- IC50 (Trypsin [15]): > 40000 nM

Compound: Nc1nn(Cc2ccc(Cn3ccccc3=O)cc2)cc1C(=O)N[C@H]1CCN(c2cccc(Cl)c2)C1
- IC50 (Plasma kallikrein [2]): 4.8 nM

Compound: CC(=O)c1ccc(NC(=O)[C@H](Cc2ccccc2)NC(=O)C2CCC(CN)CC2)cc1 (some centres not stated)
- IC50 (Plasma kallikrein [2]): 850 nM
- IC50 (Plasminogen [14]): 21000 nM
- IC50 [16]: 58000 nM

Compound: Cc1nc(N)ccc1CNC(=O)c1ccnc(Cc2ccc(Cn3ccccc3=O)c(S(C)(=O)=O)c2)c1
- IC50 (Plasma kallikrein [13]): < 100 nM

Compound: CCOc1ccc(C[C@@H](NC(=O)c2ccccc2)C(=O)N[C@H](C(=O)NCc2ccc(CN)cc2)[C@H](O)c2ccccc2)cc1
- IC50 (Plasma kallikrein [6]): 20 nM
- IC50 (Kallikrein-1 [17]): 7200 nM

Compound: CS(=O)(=O)c1cc(Cc2cc(C(=O)NCc3cnc4[nH]cc(Cl)c4c3)ccn2)ccc1Cn1ccccc1=O
- IC50 (Plasma kallikrein [13]): < 100 nM

The remaining lines, values ahead:

- IC50 (Plasma kallikrein [1]): 100 nM
- Ki (Plasma kallikrein [1]): 0.1 nM
Compound: NCc1cccc(-n2nc(C(F)(F)F)cc2C(=O)Nc2cccc(C(OCC3CC3)c3ccccc3)c2)c1 (configuration not stated)

- IC50 (Plasma kallikrein [1]): < 50 nM
Compound: NC(CCC1CC1)(c1ccc(F)c(NC(=O)[C@H]2C[C@@H](O)CN2C(=O)Nc2ccc(Cl)cc2)c1)c1ccccn1 (some centres not stated)

- IC50 (Plasma kallikrein [1]): 100 nM
- Ki (Plasma kallikrein [1]): 0.1 nM
Compound: NCc1cccc(-n2nc(C(N)=O)cc2C(=O)Nc2cc(C(NCC3CC3)c3ccccc3)ccc2F)c1 (configuration not stated)

- IC50 (Kallikrein-1 [7]): > 4000 nM
- IC50 (Coagulation factor XI [8]): > 40000 nM
- IC50 (Coagulation factor XII [9]): > 4000 nM
- IC50 (Trypsin [10]): > 40000 nM
- IC50 (Plasminogen [11]): > 40000 nM
- IC50 (Prothrombin [12]): > 40000 nM
Compound: COc1ccnc(CNC(=O)c2cn(Cc3ccc(Cn4ccccc4=O)cc3)nc2C(F)(F)F)c1F

- IC50 (Plasma kallikrein [1]): 100 nM
Compound: NCc1cccc(-n2nc(C(F)(F)F)cc2C(=O)Nc2cc(C(OCC3CC3)c3ccccc3O)ccc2F)c1 (configuration not stated)

- IC50 (Plasma kallikrein [1]): < 50 nM
Compound: CO[C@@H]1C[C@H](C(=O)Nc2cc(C(N)(CCC3CC3)c3ccccn3)ccc2F)N(C(=O)Nc2ccc(Cl)cc2)C1 (some centres not stated)

- IC50 (Plasma kallikrein [1]): 100 nM
Compound: Nc1nccc2ccc(-n3nc(C(F)(F)F)cc3C(=O)Nc3cc(C(NCC4CC4)c4ccccc4)ccc3F)cc12 (configuration not stated)

- IC50 (Plasma kallikrein [1]): > 50000 nM
Compound: NCc1cccc(-n2nc(C(F)(F)F)cc2C(=O)Nc2cccc(C(O)c3ccccc3)c2)c1 (configuration not stated)

- IC50 (Plasma kallikrein [1]): 100 nM
Compound: N=C(N)c1cccc(-n2nc(C(F)(F)F)cc2C(=O)Nc2cc(C(NCC3CC3)c3ccccc3)ccc2F)c1 (configuration not stated)
